The record followed here is patent publication US9175003B2, “Substituted azoanthracene derivatives and intermediates for preparation thereof” (TransTech Pharma, LLC, priority 2009, dated 2015).

The term EC50 denotes the midpoint of the concentration-response curve.

In this assay the target is human GLP-1 receptor (Homo sapiens (Human), UniProt P43220). The note with it: read-out: Mean EC50; cAMP, HTRF detection, 30 min at 37° C., HEK-293 cells expressing cloned human GLP-1 receptor.
Chain of human GLP-1 receptor (P43220 24-463): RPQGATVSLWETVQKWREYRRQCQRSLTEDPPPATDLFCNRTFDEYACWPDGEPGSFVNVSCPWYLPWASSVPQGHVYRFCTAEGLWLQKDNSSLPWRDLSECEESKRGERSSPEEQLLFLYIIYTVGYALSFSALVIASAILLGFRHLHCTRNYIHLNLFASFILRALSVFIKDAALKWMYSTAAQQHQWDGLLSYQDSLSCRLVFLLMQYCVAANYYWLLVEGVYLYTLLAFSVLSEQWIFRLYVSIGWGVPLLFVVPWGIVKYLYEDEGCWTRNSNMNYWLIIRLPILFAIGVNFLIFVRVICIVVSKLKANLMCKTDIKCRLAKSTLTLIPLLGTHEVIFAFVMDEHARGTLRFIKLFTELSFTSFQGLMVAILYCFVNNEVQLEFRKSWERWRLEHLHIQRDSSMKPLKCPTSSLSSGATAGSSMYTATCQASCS
Protocol: Following overnight incubation of cells, media was removed, and compounds (at concentrations ranging from 0.0001 to 100 μM) were added to monolayer cells in Iscove's modified dulbecco's medium (IMDM), 100 μM RO 20-1724 PDE inhibitor, 0.1% BSA, 2% DMSO in a final volume of 100 μL, and incubated for 30 min at 37° C. […] Alternatively, cells were harvested and combined with compounds in suspension using the buffer and protocol described above. cAMP was quantified using a homogenous time-resolved fluorescence detection system (cAMP dynamic, CIS bio International).
As for `Cc1nc(NC(C)C)ccc1S(=O)(=O)N1Cc2cc3c(cc2C[C@H]1C(=O)N[C@@H](Cc1ccc(-c2ccc(C#N)cc2)cc1)C(=O)O)OC[C@H](c1ccc(OCc2ccc(Cl)c(Cl)c2)cc1)O3` [Example 142, (S)-3-(4′-Cyano-biphenyl-4-yl)-2-{[(3S,8S)-3-[4-(3,4-dichloro-benzyloxy)-phenyl]-7-(6-isopropylamino-2-methyl-pyridine-3-sulfonyl)-2,3,6,7,8,9-hexahydro-[1,4]dioxino[2,3-g]isoquinoline-8-carbonyl]-amino}-propionic acid], the EC50 stood at 0.263 µM. For `Cc1nc(NCC2CC2)ccc1S(=O)(=O)N1Cc2cc3c(cc2C[C@H]1C(=O)N[C@@H](Cc1ccc(-c2ccc(C#N)cc2)cc1)C(=O)O)OC[C@H](c1ccc(OCc2ccc(Cl)c(Cl)c2)cc1)O3` [Example 144, (S)-3-(4′-Cyano-biphenyl-4-yl)-2-({(3S,8S)-7-[6-(cyclopropylmethyl-amino)-2-methyl-pyridine-3-sulfonyl]-3-[4-(3,4-dichloro-benzyloxy)-phenyl]-2,3,6,7,8,9-hexahydro-[1,4]dioxino[2,3-g]isoquinoline-8-carbonyl}-amino)-propionic acid], the EC50 worked out at 0.245 µM. Consider `CC[C@@H](c1ccccc1)N1Cc2cc3c(cc2C[C@H]1C(=O)N[C@@H](Cc1ccc(-c2ccnc(C)c2C)cc1)C(=O)O)OC[C@H](c1ccc(OCc2cccc(Cl)c2)cc1)O3` [Example 147, (S)-2-{[(3S,8S)-3-[4-(3-Chloro-benzyloxy)-phenyl]-7-((S)-1-phenyl-propyl)-2,3,6,7,8,9-hexahydro-[1,4]dioxino[2,3-g]isoquinoline-8-carbonyl]-amino}-3-[4-(2,3-dimethyl-pyridin-4-yl)-phenyl]-propionic acid], for which the EC50 worked out at 0.005 µM. In the case of `CC[C@@H](c1ccccc1)N1Cc2cc3c(cc2C[C@H]1C(=O)N[C@@H](Cc1ccc(-c2ccnc(C)c2C)cc1)C(=O)O)OC[C@H](c1ccc(OCc2ccc(Cl)cc2)cc1)O3` [Example 148, (S)-2-{[(3S,8S)-3-[4-(4-Chloro-benzyloxy)-phenyl]-7-((S)-1-phenyl-propyl)-2,3,6,7,8,9-hexahydro-[1,4]dioxino[2,3-g]isoquinoline-8-carbonyl]-amino}-3-[4-(2,3-dimethyl-pyridin-4-yl)-phenyl]-propionic acid] it was 0.013 µM; in that of `CC[C@@H](c1ccccc1)N1Cc2cc3c(cc2C[C@H]1C(=O)N[C@@H](Cc1ccc(-c2ccnc(C)c2C)cc1)C(=O)O)OC[C@H](c1ccc(OCc2ccccc2)cc1)O3` [Example 149, (S)-2-{[(3S,8S)-3-(4-Benzyloxy-phenyl)-7-((S)-1-phenyl-propyl)-2,3,6,7,8,9-hexahydro-[1,4]dioxino[2,3-g]isoquinoline-8-carbonyl]-amino}-3-[4-(2,3-dimethyl-pyridin-4-yl)-phenyl]-propionic acid], 0.026 µM. In the case of `CC(=O)N1Cc2cc3c(cc2C[C@H]1C(=O)N[C@@H](Cc1ccc(-c2ccnc(C)c2C)cc1)C(=O)O)OC[C@H](c1ccc(OCc2ccc(Cl)c(Cl)c2)cc1)O3` [Example 150, (S)-2-({(3S,8S)-7-Acetyl-3-[4-(3,4-dichloro-benzyloxy)-phenyl]-2,3,6,7,8,9-hexahydro-[1,4]dioxino[2,3-g]isoquinoline-8-carbonyl}-amino)-3-[4-(2,3-dimethyl-pyridin-4-yl)-phenyl]-propionic acid] it was 0.372 µM; in that of `Cc1ccccc1C(=O)N1Cc2cc3c(cc2C[C@H]1C(=O)N[C@@H](Cc1ccc(-c2ccnc(C)c2C)cc1)C(=O)O)OC[C@H](c1ccc(OCc2ccc(Cl)c(Cl)c2)cc1)O3` [Example 151, (S)-2-{[(3S,8S)-3-[4-(3,4-Dichloro-benzyloxy)-phenyl]-7-(2-methyl-benzoyl)-2,3,6,7,8,9-hexahydro-[1,4]dioxino[2,3-g]isoquinoline-8-carbonyl]-amino}-3-[4-(2,3-dimethyl-pyridin-4-yl)-phenyl]-propionic acid], 0.018 µM; in that of `Cc1nccc(-c2ccc(C[C@H](NC(=O)[C@@H]3Cc4cc5c(cc4CN3C(=O)C(C)(C)C)O[C@@H](c3ccc(OCc4ccc(Cl)c(Cl)c4)cc3)CO5)C(=O)O)cc2)c1C` [Example 152, (S)-2-{[(3S,8S)-3-[4-(3,4-Dichloro-benzyloxy)-phenyl]-7-(2,2-dimethyl-propionyl)-2,3,6,7,8,9-hexahydro-[1,4]dioxino[2,3-g]isoquinoline-8-carbonyl]-amino}-3-[4-(2,3-dimethyl-pyridin-4-yl)-phenyl]-propionic acid], 0.08 µM. The same measure for `Cc1nccc(-c2ccc(C[C@H](NC(=O)[C@@H]3Cc4cc5c(cc4CN3C(=O)C(C)C)O[C@@H](c3ccc(OCc4ccc(Cl)c(Cl)c4)cc3)CO5)C(=O)O)cc2)c1C` [Example 153, (S)-2-({(3S,8S)-3-[4-(3,4-Dichloro-benzyloxy)-phenyl]-7-isobutyryl-2,3,6,7,8,9-hexahydro-[1,4]dioxino[2,3-g]isoquinoline-8-carbonyl}-amino)-3-[4-(2,3-dimethyl-pyridin-4-yl)-phenyl]-propionic acid]: 0.327 µM. For the compound `Cc1nccc(-c2ccc(C[C@H](NC(=O)[C@@H]3Cc4cc5c(cc4CN3C(=O)C3CCCC3)O[C@@H](c3ccc(OCc4ccc(Cl)c(Cl)c4)cc3)CO5)C(=O)O)cc2)c1C` [Example 154, (S)-2-({(3S,8S)-7-Cyclopentanecarbonyl-3-[4-(3,4-dichloro-benzyloxy)-phenyl]-2,3,6,7,8,9-hexahydro-[1,4]dioxino[2,3-g]isoquinoline-8-carbonyl}-amino)-3-[4-(2,3-dimethyl-pyridin-4-yl)-phenyl]-propionic acid], the EC50 worked out at 0.108 µM. Consider `Cc1nccc(-c2ccc(C[C@H](NC(=O)[C@@H]3Cc4cc5c(cc4CN3C(=O)Cc3ccccc3)O[C@@H](c3ccc(OCc4ccc(Cl)c(Cl)c4)cc3)CO5)C(=O)O)cc2)c1C` [Example 155, (S)-2-({(3S,8S)-3-[4-(3,4-Dichloro-benzyloxy)-phenyl]-7-phenylacetyl-2,3,6,7,8,9-hexahydro-[1,4]dioxino[2,3-g]isoquinoline-8-carbonyl}-amino)-3-[4-(2,3-dimethyl-pyridin-4-yl)-phenyl]-propionic acid], for which the EC50 worked out at 0.525 µM. Take `Cc1cccc(C(=O)N2Cc3cc4c(cc3C[C@H]2C(=O)N[C@@H](Cc2ccc(-c3ccnc(C)c3C)cc2)C(=O)O)OC[C@H](c2ccc(OCc3ccc(Cl)c(Cl)c3)cc2)O4)c1` [Example 157, (S)-2-{[(3S,8S)-3-[4-(3,4-Dichloro-benzyloxy)-phenyl]-7-(3-methyl-benzoyl)-2,3,6,7,8,9-hexahydro-[1,4]dioxino[2,3-g]isoquinoline-8-carbonyl]-amino}-3-[4-(2,3-dimethyl-pyridin-4-yl)-phenyl]-propionic acid]: the EC50 is 0.034 µM. In the case of `Cc1ccc(C(=O)N2Cc3cc4c(cc3C[C@H]2C(=O)N[C@@H](Cc2ccc(-c3ccnc(C)c3C)cc2)C(=O)O)OC[C@H](c2ccc(OCc3ccc(Cl)c(Cl)c3)cc2)O4)cc1` [Example 158, (S)-2-{[(3S,8S)-3-[4-(3,4-Dichloro-benzyloxy)-phenyl]-7-(4-methyl-benzoyl)-2,3,6,7,8,9-hexahydro-[1,4]dioxino[2,3-g]isoquinoline-8-carbonyl]-amino}-3-[4-(2,3-dimethyl-pyridin-4-yl)-phenyl]-propionic acid] it was 0.146 µM; in that of `Cc1nccc(-c2ccc(C[C@H](NC(=O)[C@@H]3Cc4cc5c(cc4CN3C(=O)c3ccccc3)O[C@@H](c3ccc(OCc4ccc(Cl)c(Cl)c4)cc3)CO5)C(=O)O)cc2)c1C` [Example 159, (S)-2-({(3S,8S)-7-Benzoyl-3-[4-(3,4-dichloro-benzyloxy)-phenyl]-2,3,6,7,8,9-hexahydro-[1,4]dioxino[2,3-g]isoquinoline-8-carbonyl}-amino)-3-[4-(2,3-dimethyl-pyridin-4-yl)-phenyl]-propionic acid], 0.019 µM. In the case of `CC[C@@H](c1ccccc1)N1Cc2cc3c(cc2C[C@H]1C(=O)N[C@@H](Cc1ccc(-c2ccnc(C)c2C)cc1)C(=O)O)OC[C@H](c1ccc(OCC2CCCC2)cc1)O3` [Example 160, (S)-2-{[(3S,8S)-3-(4-Cyclopentylmethoxy-phenyl)-7-((S)-1-phenyl-propyl)-2,3,6,7,8,9-hexahydro-[1,4]dioxino[2,3-g]isoquinoline-8-carbonyl]-amino}-3-[4-(2,3-dimethyl-pyridin-4-yl)-phenyl]-propionic acid] it was 0.062 µM.

Consider `CC[C@@H](c1ccccc1)N1Cc2cc3c(cc2C[C@H]1C(=O)N[C@@H](Cc1ccc(-c2ccnc(C)c2C)cc1)C(=O)O)OC[C@H](c1ccc(OC)cc1)O3` [Example 161, (S)-3-[4-(2,3-Dimethyl-pyridin-4-yl)-phenyl]-2-{[(3S,8S)-3-(4-methoxy-phenyl)-7-((S)-1-phenyl-propyl)-2,3,6,7,8,9-hexahydro-[1,4]dioxino[2,3-g]isoquinoline-8-carbonyl]-amino}-propionic acid], for which the EC50 was found to be 0.117 µM.

As to `CC[C@@H](c1ccccc1)N1Cc2cc3c(cc2C[C@H]1C(=O)N[C@@H](Cc1ccc(-c2ccnc(C)c2C)cc1)C(=O)O)OC[C@H](c1ccc(OC(C)C)cc1)O3` [Example 162, (S)-3-[4-(2,3-Dimethyl-pyridin-4-yl)-phenyl]-2-{[(3S,8S)-3-(4-isopropoxy-phenyl)-7-((S)-1-phenyl-propyl)-2,3,6,7,8,9-hexahydro-[1,4]dioxino[2,3-g]isoquinoline-8-carbonyl]-amino}-propionic acid], the EC50 came to 0.056 µM. In the case of `CC[C@@H](c1ccccc1)N1Cc2cc3c(cc2C[C@H]1C(=O)N[C@@H](Cc1ccc(-c2ccnc(C)c2C)cc1)C(=O)O)OC[C@H](c1ccc(OCC2CCCCC2)cc1)O3` [Example 163, (S)-2-{[(3S,8S)-3-(4-Cyclohexylmethoxy-phenyl)-7-((S)-1-phenyl-propyl)-2,3,6,7,8,9-hexahydro-[1,4]dioxino[2,3-g]isoquinoline-8-carbonyl]-amino}-3-[4-(2,3-dimethyl-pyridin-4-yl)-phenyl]-propionic acid] it was 0.113 µM.
